# According to patent US11919901B2 (Syndax Pharmaceuticals, Inc., priority 2021, dated 2024):
# Test system: MV4-11 cells
# Experiment: Cell proliferation assay MV4;11 (CellTiter-Glo, 72 hours)
# Assay type: cell-based
# Settings: Homo sapiens; MV4;11 leukemia cell line, 72 hours; read-out: MV4; 11 IC50
# Method: Compounds were evaluated for its capacity to inhibit the proliferation of the MLLr leukemia cell line MV4-11 that harbors an MLL1-AF4 fusion protein. MV4-11 cells were cultured for 72 hours with limiting dilutions of compounds and viability was measured using CellTiter-Glo.
# Compounds were dissolved to obtain as 10 mM solution in DMSO. The stock was diluted 1:5 to the top concentration of 2 mM in 100% DMSO. For IC50 determination, serial 1:3.16 dilutions were prepared in 100% DMSO by diluting 20 μL into 43.5 μL of DMSO for 8 concentrations. Each prepared DMSO solution were further diluted 1:500 in the cell culture media to obtain the 2× dosing solutions. The final concentrations of tested compounds in the cell culture media ranged from 0.632 nM to 2000 nM.
# MV4-11 cells were cultured in IMDM with 10% FBS and 1× Penicillin-Streptomycin at 5% CO2 and 37° C. A cell suspension was prepared containing 15,000 cells/ml in the culture medium and 100 μL of this suspension was added per well to a 96-well cell culture plate. Then, 100 μL of 2× dosing media containing test compounds were added bringing the total volume to 200 μL. These cells were cultured for 72 hours at 37° C. and 5% CO2 in a humidified incubator.
# After 72 hours, the cultured cells were mixed and 100p L was transferred to a 96-well black plate. Cell Titer Glo (100 μl) was then added to this plate. The plate was mixed with shaking for 15 mins at RT, the luminescence was then measured using Tecan Spark 20M spectrophotometer. Cell Viability (%) was determined by RLU of test/RLU average vehicle control*100 and % max inhibition was determined by 100−(% cell viability remaining at the top concentration of compound).
row,Structure (SMILES),IC50 [nM]
1,"CC(C)N(C(=O)c1cc(F)ccc1Oc1cncnc1N1CC2(CCN(C[C@@H]3CC[C@@H](NS(=O)(=O)C4CC4)CO3)CC2)C1)C1CC1 [Example 21, 2-((4-(7-(((2S,5R)-5-(Cyclopropanesulfonamido)tetrahydro-2H-pyran-2-yl)methyl)-2,7-diazaspiro[3.5]nonan-2-yl)pyrimidin-5-yl)oxy)-N-cyclopropyl-5-fluoro-N-isopropylbenzamide]",< 100
2,"CC(C)N(C(=O)c1cc(F)ccc1Oc1cncnc1N1CC2(CCN(C[C@@H]3CC[C@@H](NS(=O)(=O)C4COC4)CO3)CC2)C1)C1CC1 [Example 22, N-Cyclopropyl-5-fluoro-N-isopropyl-2-((4-(7-(((2S,5R)-5-(oxetane-3-sulfonamido)tetrahydro-2H-pyran-2-yl)methyl)-2,7-diazaspiro[3.5]nonan-2-yl)pyrimidin-5-yl)oxy)benzamide]",100 to 1000
3,"C[C@@H]1COC[C@H](C)N1C(=O)c1cc(F)ccc1Oc1cncnc1N1CC2(CCN(C[C@@H]3CC[C@@H](NS(C)(=O)=O)CO3)CC2)C1 [Example 23, N-((3R,6S)-6-((2-(5-(2-((3S,5R)-3,5-Dimethylmorpholine-4-carbonyl)-4-fluorophenoxy)pyrimidin-4-yl)-2,7-diazaspiro[3.5]nonan-7-yl)methyl)tetrahydro-2H-pyran-3-yl)methanesulfonamide]",100 to 1000
4,"CCS(=O)(=O)N[C@@H]1CC[C@@H](CN2CCC3(CC2)CN(c2ncncc2Oc2ccc(F)cc2C(=O)N2[C@H](C)COC[C@@H]2C)C3)OC1 [Example 24, N-((3R,6S)-6-((2-(5-(2-((3S,5R)-3,5-dimethylmorpholine-4-carbonyl)-4-fluorophenoxy)pyrimidin-4-yl)-2,7-diazaspiro[3.5]nonan-7-yl)methyl)tetrahydro-2H-pyran-3-yl)ethanesulfonamide]",< 100
5,"CC(C)S(=O)(=O)N[C@@H]1CC[C@@H](CN2CCC3(CC2)CN(c2ncncc2Oc2ccc(F)cc2C(=O)N2[C@H](C)COC[C@@H]2C)C3)OC1 [Example 25, N-((3R,6S)-6-((2-(5-(2-((3S,5R)-3,5-Dimethylmorpholine-4-carbonyl)-4-fluorophenoxy)pyrimidin-4-yl)-2,7-diazaspiro[3.5]nonan-7-yl)methyl)tetrahydro-2H-pyran-3-yl)propane-2-sulfonamide]",< 100
6,"C[C@@H]1COC[C@H](C)N1C(=O)c1cc(F)ccc1Oc1cncnc1N1CC2(CCN(C[C@@H]3CC[C@@H](NS(=O)(=O)C4CC4)CO3)CC2)C1 [Example 26, N-((3R,6S)-6-((2-(5-(2-((3S,5R)-3,5-Dimethylmorpholine-4-carbonyl)-4-fluorophenoxy)pyrimidin-4-yl)-2,7-diazaspiro[3.5]nonan-7-yl)methyl)tetrahydro-2H-pyran-3-yl)cyclopropanesulfonamide]",< 100
7,"C[C@@H]1COC[C@H](C)N1C(=O)c1cc(F)ccc1Oc1cncnc1N1CC2(CCN(C[C@@H]3CC[C@@H](NS(=O)(=O)C4COC4)CO3)CC2)C1 [Example 27, N-((3R,6S)-6-((2-(5-(2-((3S,5R)-3,5-Dimethylmorpholine-4-carbonyl)-4-fluorophenoxy)pyrimidin-4-yl)-2,7-diazaspiro[3.5]nonan-7-yl)methyl)tetrahydro-2H-pyran-3-yl)oxetane-3-sulfonamide]",100 to 1000
8,"C[C@@H]1COC[C@@H](C)N1C(=O)c1cc(F)ccc1Oc1cncnc1N1CC2(CCN(C[C@@H]3CC[C@@H](NS(C)(=O)=O)CO3)CC2)C1 [Example 28, N-((3R,6S)-6-((2-(5-(2-((3R,5R)-3,5-Dimethylmorpholine-4-carbonyl)-4-fluorophenoxy)pyrimidin-4-yl)-2,7-diazaspiro[3.5]nonan-7-yl)methyl)tetrahydro-2H-pyran-3-yl)methanesulfonamide]",100 to 1000
9,"CCS(=O)(=O)N[C@@H]1CC[C@@H](CN2CCC3(CC2)CN(c2ncncc2Oc2ccc(F)cc2C(=O)N2[C@H](C)COC[C@H]2C)C3)OC1 [Example 29, N-((3R,6S)-6-((2-(5-(2-((3R,5R)-3,5-Dimethylmorpholine-4-carbonyl)-4-fluorophenoxy)pyrimidin-4-yl)-2,7-diazaspiro[3.5]nonan-7-yl)methyl)tetrahydro-2H-pyran-3-yl)ethanesulfonamide]",< 100
10,"CC(C)S(=O)(=O)N[C@@H]1CC[C@@H](CN2CCC3(CC2)CN(c2ncncc2Oc2ccc(F)cc2C(=O)N2[C@H](C)COC[C@H]2C)C3)OC1 [Example 30, N-((3R,6S)-6-((2-(5-(2-((3R,5R)-3,5-Dimethylmorpholine-4-carbonyl)-4-fluorophenoxy)pyrimidin-4-yl)-2,7-diazaspiro[3.5]nonan-7-yl)methyl)tetrahydro-2H-pyran-3-yl)propane-2-sulfonamide]",< 100
11,"C[C@@H]1COC[C@@H](C)N1C(=O)c1cc(F)ccc1Oc1cncnc1N1CC2(CCN(C[C@@H]3CC[C@@H](NS(=O)(=O)C4CC4)CO3)CC2)C1 [Example 31, N-((3R,6S)-6-((2-(5-(2-((3R,5R)-3,5-dimethylmorpholine-4-carbonyl)-4-fluorophenoxy)pyrimidin-4-yl)-2,7-diazaspiro[3.5]nonan-7-yl)methyl)tetrahydro-2H-pyran-3-yl)cyclopropanesulfonamide]",< 100
12,"C[C@@H]1COC[C@@H](C)N1C(=O)c1cc(F)ccc1Oc1cncnc1N1CC2(CCN(C[C@@H]3CC[C@@H](NS(=O)(=O)C4COC4)CO3)CC2)C1 [Example 32, N-((3R,6S)-6-((2-(5-(2-((3R,5R)-3,5-Dimethylmorpholine-4-carbonyl)-4-fluorophenoxy)pyrimidin-4-yl)-2,7-diazaspiro[3.5]nonan-7-yl)methyl)tetrahydro-2H-pyran-3-yl)oxetane-3-sulfonamide]",100 to 1000
13,"CCS(=O)(=O)N[C@@H]1CC[C@@H](CN2CCC3(CC2)CN(c2ncncc2Oc2ccc(F)cc2C(=O)N(C(C)C)[C@H]2CCOC2)C3)OC1 [Example 33, 2-((4-(7-(((2S,5R)-5-(Ethylsulfonamido)tetrahydro-2H-pyran-2-yl)methyl)-2,7-diazaspiro[3.5]nonan-2-yl)pyrimidin-5-yl)oxy)-5-fluoro-N-isopropyl-N-((S)-tetrahydrofuran-3-yl)benzamide]",< 100
14,"CCS(=O)(=O)N[C@@H]1CC[C@@H](CN2CCC3(CC2)CN(c2ncncc2Oc2ccc(F)cc2C(=O)N(CC(F)F)C(C)C)C3)OC1 [Example 34, N-(2,2-Difluoroethyl)-2-((4-(7-(((2S,5R)-5-(ethylsulfonamido)tetrahydro-2H-pyran-2-yl)methyl)-2,7-diazaspiro[3.5]nonan-2-yl)pyrimidin-5-yl)oxy)-5-fluoro-N-isopropylbenzamide]",< 100
15,"CCS(=O)(=O)N[C@@H]1CC[C@@H](CN2CCC3(CC2)CN(c2ncncc2Oc2ccc(F)cc2C(=O)N(CCOC)C(C)C)C3)OC1 [Example 35, 2-((4-(7-(((2S,5R)-5-(Ethylsulfonamido)tetrahydro-2H-pyran-2-yl)methyl)-2,7-diazaspiro[3.5]nonan-2-yl)pyrimidin-5-yl)oxy)-5-fluoro-N-isopropyl-N-(2-methoxyethyl)benzamide]",< 100
16,"CCS(=O)(=O)N[C@@H]1CC[C@@H](CN2CCC3(CC2)CN(c2ncncc2Oc2ccc(F)cc2C(=O)N2[C@H](C)CCC[C@@H]2C)C3)OC1 [Example 36, N-((3R,6S)-6-((2-(5-(2-((2S,6R)-2,6-Dimethylpiperidine-1-carbonyl)-4-fluorophenoxy)pyrimidin-4-yl)-2,7-diazaspiro[3.5]nonan-7-yl)methyl)tetrahydro-2H-pyran-3-yl)ethanesulfonamide]",< 100
